Key:
[1] = tested on: S. mansoni juvenile worms; experiment: Mouse infection model, juvenile worms, oral treatment day 25 post infection, worm recovery; assay type: in vivo, Schistosoma mansoni; conditions: mice
Method: (§1) Methods for the subcutaneous infection of mice and subsequent worm recovery were as described in Mansour et al (2016) except that infection was with 150 cercariae and the perfusion medium was citrate saline (0.9% sodium chloride, 1.5% tri-sodium citrate). Perfusion was carried out 8 days (adult infections) or 15 days (juvenile infections) after treatment. Perfuseate was collected into 30 mL universal tubes. RBC (Red Blood Cells) were removed by allowing the perfuseate to settle for 10 min, removal of most of the supernatant and washing once as above with 10 mL perfusion medium. A drop of dilute aqueous saponin solution was added to lyse any remaining RBC and the worm suspension poured into a grid-marked small petri dish. The tube was rinsed out into the petri dish and examined for any remaining worms. Worms were counted using a dissecting microscope. The mouse livers removed after perfusion were squashed between two thick glass plates and examined visually and any remaining worms added to those counted as above.
(§2) For testing efficacy against the juvenile worms, treatment was on day 25 post infection and for testing against the adult worms on day 42 post infection. Drugs were suspended in 7% Tween-80/3% Ethanol/double distilled water and drug dispersal was facilitated by vortexing and using a sonicating water bath (Formulation F1). Alternatively, drugs were suspended in 10% DMSO, 90% double distilled water containing 50 mM Na2HPO4 with 0.5% Tween-80 by first dissolving or suspending the drug in DMSO then adding the DMSO solution/suspension to the aqueous solution (Formulation F2). In a further set of conditions, drugs were first dissolved in DMSO, then diluted with corn oil to give a 5% DMSO+drug solution/suspension (Formulation F3)
(§3) The drug solution/suspensions were given by oral gavage at the rate of 10 ml/kg. Positive controls (artemether for juvenile worms and praziquantel for adult worms) were used in each experiment.

HepG2 cell line = experiment: Cytotoxicity against human HepG2 cell lines; assay type: cell-based
S. mansoni adult worms [2] = experiment: In vitro assay, S. mansoni adult worms; assay type: cell-based; conditions: Schistosoma mansoni; S. mansoni adult worms, in vitro; read-out: (a) Adult
Method: (§4) The routine biological assays using adult or juvenile worms and cytotoxicity assays using MRC-5 cells have been disclosed previously in Mansour, N. R., et al. (2016). “High Throughput Screening Identifies Novel Lead Compounds with Activity against Larval, Juvenile and Schistosoma mansoni PLoS Negl Trap Dis 10(4): e0004659. Cytotoxicity assays using the HepG2 cell line were carried out as described in Molecular Diversity (2015) 19, 251-261.
(a) S. mansoni adult worms

[3] = tested on: S. mansoni juvenile worms; experiment: In vitro assay, S. mansoni juvenile worms; assay type: cell-based; conditions: Schistosoma mansoni; S. mansoni juvenile worms, in vitro; read-out: (b) Juvenile
Method: as §4
(b) S. mansoni juvenile worms

S. mansoni adult worms [4] = experiment: Mouse infection model, adult worms, oral treatment day 42 post infection, worm recovery; assay type: in vivo, Schistosoma mansoni; conditions: mice
Method: as §1, §2, §3

[5] = oral 400 mg/kg, Formulation F1, negative control 33.0 ± 7.2
[6] = oral 400 mg/kg, Formulation F1, negative control 33.2 ± 9.09
[7] = oral 25 mg/kg, Formulation F1, negative control 33.2 ± 9.09
[8] = oral 25 mg/kg, Formulation F2, negative control 33.2 ± 9.09
[9] = oral 50 mg/kg, Formulation F1, negative control 33.0 ± 7.2
[10] = oral 5 mg/kg, Formulation F2, negative control 33.2 ± 9.09
[11] = oral 6.25 mg/kg, Formulation F3, negative control 32.6 ± 10.6
[12] = oral 50 mg/kg, Formulation F3, negative control 32.8 ± 14
[13] = oral 50 mg/kg, Formulation F1, negative control 33.2 ± 9.09
[14] = oral 50 mg/kg, Formulation F1, negative control 33.8 ± 4.1
[15] = oral 100 mg/kg, Formulation F1, negative control 33.8 ± 4.1
[16] = oral 400 mg/kg, Formulation F1, negative control 33.8 ± 4.1
[17] = oral 400 mg/kg, Formulation F1, negative control 38.8 ± 5.4

Structure (SMILES)	IC50 (S. mansoni adult worms [2]) [nM]	IC50 [3] [nM]	(e) Cytotox HepG2 (HepG2 cell line) [µM]	further results
CO[C@H]1O[C@@H]2O[C@@]3(C)CC[C@H]4[C@H](C)CC[C@@H]([C@H]1C)[C@@]24OO3 [Artemether, artemether, reference compound]				Mean worm recovery [1, 5]: 8.2 ± 4.1; Percent worm reduction [1, 5]: 75%; Mean worm recovery [1, 6]: 8.6 ± 4.16; Percent worm reduction [1, 6]: 74%
Fc1c(-c2c(C(F)(F)F)nc3cnc(-c4cccc(C(F)(F)C(F)(F)F)c4)cn23)ccc2[nH]ncc12 [Example 29, 4-fluoro-5-{2-trifluoromethyl-6-[3-(pentafluoroethyl)phenyl]imidazo[1,2-a]pyrazin-3-yl}-1H-indazole]	30	28	8.9	Mean worm recovery [1, 10]: 14.8 ± 6.61; Percent worm reduction [1, 10]: 55%; Mean worm recovery [1, 11]: 2.0 ± 2.6; Percent worm reduction [1, 11]: 94%; Mean worm recovery [1, 8]: 4 ± 1.41; Percent worm reduction [1, 8]: 88%
Fc1ccc(-c2cn3c(-c4ccc5[nH]ncc5c4F)c(C4CC4)nc3cn2)cc1C(F)(F)F [Example 32]	63		16.1	Mean worm recovery [1, 9]: 29.0 ± 7.9; Percent worm reduction [1, 9]: 12%
Oc1cc(F)c(-c2c(C3CC3)nc3cnc(-c4ccc(F)c(C(F)(F)F)c4)cn23)c(F)c1 [Example 34, 4-(2-cyclopropyl-6-(4-fluoro-3-(trifluoromethyl)phenyl)imidazo[1,2-a]pyrazin-3-yl)-3,5-difluorophenol]	69	88	8.9	Mean worm recovery [1, 9]: 24.8 ± 7.4; Percent worm reduction [1, 9]: 25%
CCc1nc2cnc(-c3ccc(F)c(C(F)(F)C(F)(F)F)c3)cn2c1-c1c(F)cc(O)cc1F [Example 45, 4-{2-ethyl-6-[4-fluoro-3-(1,1,2,2,2-pentafluoroethyl)phenyl]imidazo[1,2-a]pyrazin-3-yl}-3,5-difluorophenol]		21		Mean worm recovery [1, 7]: 31.8 ± 5.76; Percent worm reduction [1, 7]: 4%
Fc1c(-c2c(C(F)(F)F)nc3cnc(-c4ccnc(C(F)(F)F)c4)cn23)ccc2[nH]ncc12 [Example 88, 3-(4-Fluoro-1H-indazol-5-yl)-2-trifluoromethyl-6-(2-trifluoromethyl-pyridin-4-yl)-imidazo[1,2-a]pyrazine]	116	140	7.0	
CC(C)c1nc2cnc(-c3ccc(F)c(C(F)(F)F)c3)nc2n1-c1c(F)cc(O)cc1F [Example 89, 3,5-Difluoro-4-[2-(4-fluoro-3-trifluoromethyl-phenyl)-8-isopropyl-purin-9-yl]-phenol]	71	128	4.8	
CC(C)c1nc2cnc(-c3cccc(C(F)(F)F)c3)nc2n1-c1ccc(O)cc1F [Example 90, 3-fluoro-4-[8-(propan-2-yl)-2-[3-(trifluoromethyl)phenyl]-9H-purin-9-yl]phenol]	77	468	9.3	
O=C(C1CCCCC1)N1CC(=O)N2CCc3ccccc3C2C1 (stereo not shown) [Praziquantel, praziquantel]				Mean worm recovery [1, 13]: 26.2 ± 9.44; Percent worm reduction [1, 13]: 21%; Mean worm recovery (S. mansoni adult worms [4]; [14]): 29.8 ± 8.4; Percent worm reduction (S. mansoni adult worms [4]; [14]): 13%; Mean worm recovery (S. mansoni adult worms [4]; [15]): 12.2 ± 6.3; Percent worm reduction (S. mansoni adult worms [4]; [15]): 64%; Mean worm recovery (S. mansoni adult worms [4]; [16]): 2.6 ± 1.5; Percent worm reduction (S. mansoni adult worms [4]; [16]): 92%; Mean worm recovery (S. mansoni adult worms [4]; [17]): 2.3 ± 1.7; Percent worm reduction (S. mansoni adult worms [4]; [17]): 94%

Now from value to molecule, other results behind:

IC50 (S. mansoni adult worms [2]) [nM]	IC50 [3] [nM]	Structure (SMILES)	(e) Cytotox HepG2 (HepG2 cell line) [µM]	further results
47	19	CC(C)c1nc2cnc(-c3ccc(F)c(C(F)(F)F)c3)cn2c1-c1ccc2[nH]ncc2c1F [Example 2, 4-fluoro-5-{6-[4-fluoro-3-(trifluoromethyl)phenyl]-2-(propan-2-yl)imidazo[1,2-a]pyrazin-3-yl}-1H-indazole]	10.4	Mean worm recovery [1, 7]: 7.2 ± 3.9; Percent worm reduction [1, 7]: 78%; Mean worm recovery [1, 8]: 4.4 ± 3.91; Percent worm reduction [1, 8]: 87%; Mean worm recovery [1, 9]: 4.0 ± 4.1; Percent worm reduction [1, 9]: 88%
2	2	CC(C)c1cc(-c2cn3c(-c4ccc5[nH]ncc5c4F)c(C(F)(F)F)nc3cn2)ccc1F [Example 67, 3-(4-Fluoro-1H-indazol-5-yl)-6-(4-fluoro-3-isopropyl-phenyl)-2-trifluoromethyl-imidazo[1,2-a]pyrazine]	17.0	Mean worm recovery [1, 12]: 0; Percent worm reduction [1, 12]: 100%
7	4	CC(C)c1cc(-c2cn3c(-c4ccc5[nH]ncc5c4F)c(C4CCC4)nc3cn2)ccc1F [Example 77, 2-Cyclobutyl-3-(4-fluoro-1H-indazol-5-yl)-6-(4-fluoro-3-isopropyl-phenyl)-imidazo[1,2-a]pyrazine]	10.8	
5	5	CC(C)c1cc(-c2cn3c(-c4ccc5[nH]ncc5c4F)c(C4CC4)nc3cn2)ccc1F [Example 79, 2-Cyclopropyl-3-(4-fluoro-1H-indazol-5-yl)-6-(4-fluoro-3-isopropyl-phenyl)-imidazo[1,2-a]pyrazine]	15.7	
11	12	CC(C)Oc1cc(-c2cn3c(-c4ccc5[nH]ncc5c4F)c(C(F)(F)F)nc3cn2)ccc1F [Example 81, 3-(4-Fluoro-1H-indazol-5-yl)-6-(4-fluoro-3-isopropoxy-phenyl)-2-trifluoromethyl-imidazo[1,2-a]pyrazine]	9.2	
45	59	Fc1ccc(-c2cn3c(-c4ccc5[nH]ncc5c4F)c(C(F)(F)F)nc3cn2)cc1C1CCC1 [Example 82, 6-(3-Cyclobutyl-4-fluoro-phenyl)-3-(4-fluoro-1H-indazol-5-yl)-2-trifluoromethyl-imidazo[1,2-a]pyrazine]	6.1	
< 12	15	CC(C)c1cc(-c2cn3c(-c4ccc5[nH]ncc5c4Cl)c(C(F)(F)F)nc3cn2)ccc1F [Example 83, 3-(4-Chloro-1H-indazol-5-yl)-6-(4-fluoro-3-isopropyl-phenyl)-2-trifluoromethyl-imidazo[1,2-a]pyrazine]	6.6	
12	19	Fc1ccc(-c2cn3c(-c4ccc5[nH]ncc5c4F)c(C(F)(F)F)nc3cn2)cc1C1CC1 [Example 84, 6-(3-Cyclopropyl-4-fluoro-phenyl)-3-(4-fluoro-1H-indazol-5-yl)-2-trifluoromethyl-imidazo[1,2-a]pyrazine]	10.5	
17	26	CC(C)Oc1cccc(-c2cn3c(-c4ccc5[nH]ncc5c4F)c(C(F)(F)F)nc3cn2)c1 [Example 86, 3-(4-Fluoro-1H-indazol-5-yl)-6-(3-isopropoxy-phenyl)-2-trifluoromethyl-imidazo[1,2-a]pyrazine]	13.2	
37	91	CC(C)c1cc(-c2cn3c(-c4ccc5[nH]ncc5c4F)c(C(F)(F)F)nc3cn2)ccn1 [Example 87, 3-(4-Fluoro-1H-indazol-5-yl)-6-(2-isopropyl-pyridin-4-yl)-2-trifluoromethyl-imidazo[1,2-a]pyrazine]	9.5	

From US11046700B2, “Substituted imidazo[1,2-a]pyrazines, pyrazolo[1,5-c]pyrimidines, pyrazolo[1,5-a]pyridines, and purines for the treatment of schistosomiasis” (Merck Patent GmbH, priority 2017, dated 2021)
